Data from ChEMBL document CHEMBL1821695, “Tetrazine-trans-cyclooctene ligation for the rapid construction of integrin αvβ₃ targeted PET tracer based on a cyclic RGD peptide” (Bioorg Med Chem Lett, 2011).

Columns and labels:
[1] = biological target: Integrin alpha-V/beta-3 (Homo sapiens) (UniProt P05106+P06756); assay: Displacement of [125]I-echistatin from alphaVbeta3 integrin expressed in human U87MG cells by competitive binding assay; format: cell-based; details: U-87MG ATCC
[2] = Chemical stability of the compound in phosphate buffer saline in presence of 5% EtOH after 6 hrs by Radio-HPLC analysis; format: physicochemical; details: phosphate buffered saline with 5% EtOH; read-out: Stability
Mus musculus [3] = assay: Biodistribution in tumor of athymic nude mouse bearing U87MG cells at 3.7 MBq, iv after 0.5 hrs by micro PET scan method; format: ADME, organism-based, Neoplasm, U-87MG ATCC; details: in vivo
Mus musculus [4] = assay: Biodistribution in tumor of athymic nude mouse bearing U87MG cells at 3.7 MBq, iv after 1 hr by micro PET scan method; format: ADME, organism-based, Neoplasm, U-87MG ATCC; details: in vivo
Mus musculus [5] = assay: Biodistribution in tumor of athymic nude mouse bearing U87MG cells at 3.7 MBq, iv after 2 hrs by micro PET scan method; format: ADME, organism-based, Neoplasm, U-87MG ATCC; details: in vivo
Mus musculus [6] = assay: Biodistribution in tumor of athymic nude mouse bearing U87MG cells at 3.7 MBq, iv after 4 hrs by micro PET scan method; format: ADME, organism-based, Neoplasm, U-87MG ATCC; details: in vivo
Mus musculus [7] = assay: Biodistribution in abdomen of athymic nude mouse bearing U87MG cells at 3.7 MBq, iv upto 4 hrs postinjection by micro PET scan method; format: ADME, organism-based, U-87MG ATCC; details: in vivo
Mus musculus [8] = assay: Biodistribution in tumor of athymic nude mouse bearing U87MG cells after 0.5 hrs co-injecting with 10 mg/kg of c(RGDyK) by micro PET scan method; format: ADME, organism-based, Neoplasm, U-87MG ATCC; parameters: dose 10 mg/kg; details: in vivo
Mus musculus [9] = assay: Biodistribution in tumor of athymic nude mouse bearing U87MG cells after 1 hr co-injecting with 10 mg/kg of c(RGDyK) by micro PET scan method; format: ADME, organism-based, Neoplasm, U-87MG ATCC; parameters: dose 10 mg/kg; details: in vivo
Mus musculus [10] = assay: Biodistribution in tumor of athymic nude mouse bearing U87MG cells after 2 hrs co-injecting with 10 mg/kg of c(RGDyK) by micro PET scan method; format: ADME, organism-based, Neoplasm, U-87MG ATCC; parameters: dose 10 mg/kg; details: in vivo
Mus musculus [11] = assay: Biodistribution in tumor of athymic nude mouse bearing U87MG cells after 4 hrs co-injecting with 10 mg/kg of c(RGDyK) by micro PET scan method; format: ADME, organism-based, Neoplasm, U-87MG ATCC; parameters: dose 10 mg/kg; details: in vivo

| Activity [1] | remaining at 6 h [2] | Drug uptake (Mus musculus [3]) | Drug uptake (Mus musculus [4]) | Drug uptake (Mus musculus [5]) | Drug uptake (Mus musculus [6]) | Drug uptake (Mus musculus [7]) | Drug uptake (Mus musculus [8]) | Drug uptake (Mus musculus [9]) | Drug uptake (Mus musculus [10]) | Drug uptake (Mus musculus [11]) | SMILES |
| --- | --- | --- | --- | --- | --- | --- | --- | --- | --- | --- | --- |
| Dose-dependent effect | – | – | – | – | – | – | – | – | – | – | N=C(N)NCCC[C@H]1NC(=O)CNC(=O)[C@@H](CC(=O)O)NC(=O)[C@H](Cc2ccc(O)cc2)NC(=O)[C@@H](CCCCNC(=O)CCCC(=O)Nc2ccc(C3=NN=C(c4ccccn4)[C@@H]4CCC[C@@H](OCCF)CC[C@@H]34)nc2)NC1=O |
| Dose-dependent effect | – | – | – | – | – | – | – | – | – | – | N=C(N)NCCC[C@H]1NC(=O)CNC(=O)[C@@H](CC(=O)O)NC(=O)[C@H](Cc2ccc(O)cc2)NC(=O)[C@@H](CCCCN)NC1=O |
| – | > 95% | 4.6 % ID/g | 4.4 % ID/g | 4.2 % ID/g | 2.7 % ID/g | Active | 1.4 % ID/g | 1 % ID/g | 0.6 % ID/g | 0.4 % ID/g | N=C(N)NCCC[C@H]1NC(=O)CNC(=O)[C@@H](CC(=O)O)NC(=O)[C@H](Cc2ccc(O)cc2)NC(=O)[C@@H](CCCCNC(=O)CCCC(=O)Nc2ccc(C3=NN=C(c4ccccn4)[C@@H]4CCC[C@@H](OCC[18F])CC[C@@H]34)nc2)NC1=O |
